{
  "source": "patent EP0326331B1",
  "about": "“Substituted quinolines and cinnolines” (Dow AgroSciences LLC, priority 1988, dated 1989)",
  "assay_type_in_all_cases": "in vivo",
  "key": {"[1]": {"tested_on": "Twospotted spider mites (Tetranychus urticae Koch)", "test": "Mite/insect screen, SM", "settings": "for mortality at 400 ppm / mortality at 200 ppm: Tetranychus urticae, percent mortality, SAW, read-out: SM RESULTS %; for mortality at 400 ppm: SM & MA RATE 400 PPM; for mortality at 200 ppm: SM & MA RATE 200 PPM", "outline": "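Compounds dissolved in 50:50 acetone/alcohol containing sulfonate/nonionic emulsifier blends, then diluted with water to the indicated concentrations. Leaves sprayed on both surfaces to runoff at 10 psi and dried one hour. Percent mortality scored after standard exposure periods.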"}, "[2]": {"tested_on": "Pseudoperonospora cubensis (downy mildew)", "test": "Test 1 greenhouse foliar spray screen, downy mildew on squash", "settings": "disease control rating, foliar spray on squash, 400 ppm (+++ at 100 ppm)"}, "[3]": {"tested_on": "Septoria tritici (leaf blotch)", "test": "Test 1 greenhouse foliar spray screen, leaf blotch on wheat", "settings": "disease control rating, foliar spray on wheat, 400 ppm (+++ at 100 ppm)"}, "[4]": {"tested_on": "corn rootworm", "test": "Mite/insect screen, CRW", "settings": "percent mortality, read-out: CRW RESULTS %; for mortality at 24 ppm: CRW RATE 24.00 PPM; for mortality at 12 ppm: CRW RATE 12.00 PPM", "outline": "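Percent mortality is evaluated once the standard exposure period ends. Test material is applied as a water dilution of an acetone/alcohol (50:50) stock carrying two sulfonate/nonionic emulsifiers (23 and 13 g per liter).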"}, "[5]": {"tested_on": "Cercospora beticola (leaf spot)", "test": "Test 1 greenhouse foliar spray screen, leaf spot on sugar beet", "settings": "disease control rating, foliar spray on sugar beet, 400 ppm (+++ at 100 ppm)"}, "[6]": {"tested_on": "melon aphids (Aphis gossypii Glover)", "test": "Mite/insect screen, MA", "settings": "Aphis gossypii, percent mortality, SAW, read-out: MA RESULTS %; for mortality at 400 ppm: SM & MA RATE 400 PPM; for mortality at 200 ppm: SM & MA RATE 200 PPM", "outline": "(§1)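 Formulation: acetone/alcohol 50:50 + sulfonate/nonionic emulsifiers, water-diluted to indicated concs. Spray both leaf surfaces to runoff, 10 psi; dry 1 h. Armyworm: 2 excised uninfested leaves in Petri dish. Score % mortality after standard exposure.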"}, "[7]": {"tested_on": "Botrytis cinerea (gray mold)", "test": "Test 1 greenhouse foliar spray screen, gray mold on grape berries", "settings": "disease control rating, spray on grape berries, 400 ppm (+++ at 100 ppm)"}, "[8]": {"tested_on": "Erysiphe graminis tritici (powdery mildew)", "test": "Test 1 greenhouse foliar spray screen, powdery mildew on wheat", "settings": "disease control rating, foliar spray on wheat, 400 ppm (+++ at 100 ppm)"}, "[9]": {"tested_on": "southern armyworm (Spodopetra eridania Cramer)", "test": "Mite/insect screen, SAW", "settings": "Spodoptera eridania, percent mortality, SAW, read-out: SAW RESULTS %; for mortality at 400 ppm: SM & MA RATE 400 PPM; for mortality at 200 ppm: SM & MA RATE 200 PPM", "outline": "as §1"}, "[10]": {"tested_on": "Venturia inaequalis (apple scab)", "test": "Test 1 greenhouse foliar spray screen, apple scab on apple seedling", "settings": "disease control rating, foliar spray on apple seedling, 400 ppm (+++ at 100 ppm)"}, "[11]": {"tested_on": "Puccinia recondita tritici (leaf rust)", "test": "Test 1 greenhouse foliar spray screen, leaf rust on wheat", "settings": "disease control rating, foliar spray on wheat, 400 ppm (+++ at 100 ppm)"}, "[12]": {"tested_on": "Pyricularia oryzae (rice blast)", "test": "whole plant or invertebrate", "settings": "for RICE BLAST: disease control rating, foliar spray on rice, 400 ppm (+++ at 100 ppm)"}, "[13]": {"settings": "summary statement in the description"}},
  "data": [
    {"smiles": "CN(c1ccc(F)cc1)c1ccnc2cc(Cl)ccc12", "note": "[Example 106, 7-chloro-N-(4-fluorophenyl)-N-methyl-4-quinolinamine]", "values": [
      {"measurement": "mortality at 400 ppm", "setting": "[1]", "value": 0, "unit": "%"},
      {"measurement": "DOWN MDEW", "setting": "[2]", "value": "+ (20-89% control at 400 ppm)"},
      {"measurement": "LEAF BLOT", "setting": "[3]", "value": "+ (20-89% control at 400 ppm)"},
      {"measurement": "mortality at 24 ppm", "setting": "[4]", "value": 0, "unit": "%"},
      {"measurement": "LEAF SPOT", "setting": "[5]", "value": "+ (20-89% control at 400 ppm)"},
      {"measurement": "mortality at 400 ppm", "setting": "[6]", "value": 0, "unit": "%"},
      {"measurement": "GRAY MOLD", "setting": "[7]", "value": "- (0-19% control at 400 ppm)"},
      {"measurement": "POWD MDEW", "setting": "[8]", "value": "++ (90-100% control at 400 ppm)"},
      {"measurement": "mortality at 400 ppm", "setting": "[9]", "value": 0, "unit": "%"},
      {"measurement": "APPL SCAB", "setting": "[10]", "value": "- (0-19% control at 400 ppm)"},
      {"measurement": "LEAF RUST", "setting": "[11]", "value": "+ (20-89% control at 400 ppm)"},
      {"measurement": "RICE BLAST", "setting": "[12]", "value": "+ (20-89% control at 400 ppm)"}
    ]},
    {"smiles": "FC(F)(F)c1cccc(CCNc2ccnc3cc(Cl)ccc23)c1", "note": "[Example 107, 7-chloro-N-[2-[3-(trifluoromethyl)phenyl]ethyl]-4-quinolinamine]", "values": [
      {"measurement": "mortality at 200 ppm", "setting": "[1]", "value": 0, "unit": "%"},
      {"measurement": "mortality at 400 ppm", "setting": "[1]", "value": 0, "unit": "%"},
      {"measurement": "DOWN MDEW", "setting": "[2]", "value": "+++ (90-100% control at 100 ppm)"},
      {"measurement": "LEAF BLOT", "setting": "[3]", "value": "- (0-19% control at 400 ppm)"},
      {"measurement": "mortality at 12 ppm", "setting": "[4]", "value": 0, "unit": "%"},
      {"measurement": "mortality at 24 ppm", "setting": "[4]", "value": 0, "unit": "%"},
      {"measurement": "LEAF SPOT", "setting": "[5]", "value": "- (0-19% control at 400 ppm)"},
      {"measurement": "mortality at 200 ppm", "setting": "[6]", "value": 0, "unit": "%"},
      {"measurement": "mortality at 400 ppm", "setting": "[6]", "value": 0, "unit": "%"},
      {"measurement": "GRAY MOLD", "setting": "[7]", "value": "- (0-19% control at 400 ppm)"},
      {"measurement": "POWD MDEW", "setting": "[8]", "value": "++ (90-100% control at 400 ppm)"},
      {"measurement": "mortality at 200 ppm", "setting": "[9]", "value": 0, "unit": "%"},
      {"measurement": "mortality at 400 ppm", "setting": "[9]", "value": 0, "unit": "%"},
      {"measurement": "APPL SCAB", "setting": "[10]", "value": "- (0-19% control at 400 ppm)"},
      {"measurement": "LEAF RUST", "setting": "[11]", "value": "+ (20-89% control at 400 ppm)"},
      {"measurement": "RICE BLAST", "setting": "[12]", "value": "+ (20-89% control at 400 ppm)"}
    ]},
    {"smiles": "Fc1cccc2c(NCCc3cccc(Br)c3)ccnc12", "note": "[Example 108, N-[2-(3-bromophenyl)ethyl]-8-fluoro-4-quinolinamine]", "values": [
      {"measurement": "mortality at 200 ppm", "setting": "[1]", "value": 0, "unit": "%"},
      {"measurement": "DOWN MDEW", "setting": "[2]", "value": "+ (20-89% control at 400 ppm)"},
      {"measurement": "LEAF BLOT", "setting": "[3]", "value": "+++ (90-100% control at 100 ppm)"},
      {"measurement": "mortality at 12 ppm", "setting": "[4]", "value": 0, "unit": "%"},
      {"measurement": "LEAF SPOT", "setting": "[5]", "value": "- (0-19% control at 400 ppm)"},
      {"measurement": "mortality at 200 ppm", "setting": "[6]", "value": 0, "unit": "%"},
      {"measurement": "GRAY MOLD", "setting": "[7]", "value": "- (0-19% control at 400 ppm)"},
      {"measurement": "POWD MDEW", "setting": "[8]", "value": "+ (20-89% control at 400 ppm)"},
      {"measurement": "mortality at 200 ppm", "setting": "[9]", "value": 0, "unit": "%"},
      {"measurement": "APPL SCAB", "setting": "[10]", "value": "- (0-19% control at 400 ppm)"},
      {"measurement": "LEAF RUST", "setting": "[11]", "value": "++ (90-100% control at 400 ppm)"},
      {"measurement": "RICE BLAST", "setting": "[12]", "value": "+ (20-89% control at 400 ppm)"}
    ]},
    {"smiles": "CC(C)(C)c1ccc(CCNc2ccnc3c(F)cccc23)cc1", "note": "[Example 111, N-[2-[4-(t-butyl)phenyl]ethyl]--8-fluoro-4-quinolinamine]", "values": [
      {"measurement": "mortality at 200 ppm", "setting": "[1]", "value": 90, "unit": "%"},
      {"measurement": "mortality at 400 ppm", "setting": "[1]", "value": 80, "unit": "%"},
      {"measurement": "activity as miticides", "setting": "[1]; [13]", "value": "particularly excellent activity"},
      {"measurement": "DOWN MDEW", "setting": "[2]", "value": "+++ (90-100% control at 100 ppm)"},
      {"measurement": "LEAF BLOT", "setting": "[3]", "value": "+++ (90-100% control at 100 ppm)"},
      {"measurement": "mortality at 12 ppm", "setting": "[4]", "value": 0, "unit": "%"},
      {"measurement": "mortality at 24 ppm", "setting": "[4]", "value": 0, "unit": "%"},
      {"measurement": "LEAF SPOT", "setting": "[5]", "value": "- (0-19% control at 400 ppm)"},
      {"measurement": "mortality at 200 ppm", "setting": "[6]", "value": 0, "unit": "%"},
      {"measurement": "mortality at 400 ppm", "setting": "[6]", "value": 0, "unit": "%"},
      {"measurement": "GRAY MOLD", "setting": "[7]", "value": "- (0-19% control at 400 ppm)"},
      {"measurement": "POWD MDEW", "setting": "[8]", "value": "+ (20-89% control at 400 ppm)"},
      {"measurement": "mortality at 200 ppm", "setting": "[9]", "value": 20, "unit": "%"},
      {"measurement": "mortality at 400 ppm", "setting": "[9]", "value": 20, "unit": "%"},
      {"measurement": "APPL SCAB", "setting": "[10]", "value": "- (0-19% control at 400 ppm)"},
      {"measurement": "LEAF RUST", "setting": "[11]", "value": "+++ (90-100% control at 100 ppm)"},
      {"measurement": "RICE BLAST", "setting": "[12]", "value": "++ (90-100% control at 400 ppm)"},
      {"measurement": "activity against rice blast", "setting": "[12]; [13]", "value": "particularly excellent activity"}
    ]}
  ]
}
